Where “and” joins values, the source holds several entries; their conditions need not be identical. Equal values may be shown once. Inconclusive results and toxic doses are left out.
Tested on: BDF1 mice, P388 leukemia ip, median survival T/C
Test: NCI In Vivo Anticancer Drug Screen. Data for tumor model P388 Leukemia (intraperitoneal) in B6D2F1 (BDF1) mice
Settings: endpoint: median survival time, higher = longer survival
Procedure, shortened: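 Steps: implant the tumour, treat one group with compound and another with vehicle, record survival, then divide treated by control.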

[1] = dose: 12.5 mg/kg/injection, schedule: Q01DX009 (ip), vehicle: saline with Tween-80
[2] = dose: 25.0 mg/kg/injection, schedule: Q01DX009 (ip), vehicle: saline with Tween-80
[3] = dose: 100.0 mg/kg/injection, schedule: Q01DX009 (ip), vehicle: saline with Tween-80
[4] = dose: 50.0 mg/kg/injection, schedule: Q01DX009 (ip), vehicle: saline with Tween-80
[5] = dose: 50.0 mg/kg/injection, schedule: Q04DX003 (ip), vehicle: saline with Tween-80
[6] = dose: 100.0 mg/kg/injection, schedule: Q04DX003 (ip), vehicle: saline with Tween-80
[7] = dose: 200.0 mg/kg/injection, schedule: Q04DX003 (ip), vehicle: saline with Tween-80
[8] = dose: 100.0 mg/kg/injection, schedule: Q01DX009 (ip), vehicle: water
[9] = dose: 100.0 mg/kg/injection, schedule: Q04DX003 (ip), vehicle: water
[10] = dose: 400.0 mg/kg/injection, schedule: Q04DX003 (ip), vehicle: saline with Tween-80

Structure (SMILES): Oc1cc(N2CC2)c(O)cc1N1CC1
- T/C (dose: 0.02 mg/kg/injection, schedule: Q01DX009 (ip), vehicle: saline): 150 % of control
- T/C (dose: 0.03 mg/kg/injection, schedule: Q01DX009 (ip), vehicle: saline): 154 % of control
- T/C (dose: 0.1 mg/kg/injection, schedule: Q01DX009 (ip), vehicle: saline): 171 % of control
- T/C (dose: 0.13 mg/kg/injection, schedule: Q01DX009 (ip), vehicle: saline): 200 % of control and 213 % of control
- T/C (dose: 0.2 mg/kg/injection, schedule: Q01DX009 (ip), vehicle: saline): 186 % of control and 204 % of control
- T/C (dose: 0.3 mg/kg/injection, schedule: Q01DX009 (ip), vehicle: saline): 204 % of control
- T/C (dose: 0.44 mg/kg/injection, schedule: Q01DX009 (ip), vehicle: saline): 200 % of control
- T/C (dose: 0.47 mg/kg/injection, schedule: Q04DX003 (ip), vehicle: saline): 150 % of control
- T/C (dose: 0.68 mg/kg/injection, schedule: Q01DX009 (ip), vehicle: saline): 263 % of control
- T/C (dose: 0.72 mg/kg/injection, schedule: Q04DX003 (ip), vehicle: saline): 200 % of control
- T/C (dose: 1.0 mg/kg/injection, schedule: Q01DX009 (ip), vehicle: saline): 268 % of control
- T/C (dose: 1.08 mg/kg/injection, schedule: Q04DX003 (ip), vehicle: saline): 220 % of control
- T/C (dose: 1.65 mg/kg/injection, schedule: Q04DX003 (ip), vehicle: saline): 225 % of control
- T/C (dose: 2.5 mg/kg/injection, schedule: Q04DX003 (ip), vehicle: saline): 225 % of control and 150 % of control
- T/C (dose: 3.75 mg/kg/injection, schedule: Q04DX003 (ip), vehicle: saline): 90 % of control
- T/C (dose: 16.0 micrograms/kg/injection, schedule: Q01DX009 (ip), vehicle: saline): 105 % of control
- T/C (dose: 25.0 micrograms/kg/injection, schedule: Q01DX009 (ip), vehicle: saline): 102 % of control
- T/C (dose: 38.0 micrograms/kg/injection, schedule: Q01DX009 (ip), vehicle: Klucel (hydroxypropylcellulose) (HPC)): 190 % of control
- T/C (dose: 58.0 micrograms/kg/injection, schedule: Q01DX009 (ip), vehicle: Klucel (hydroxypropylcellulose) (HPC)): 200 % of control
- T/C (dose: 88.0 micrograms/kg/injection, schedule: Q01DX009 (ip), vehicle: saline): 179 % of control
- T/C (dose: 132.0 micrograms/kg/injection, schedule: Q01DX009 (ip), vehicle: saline): 120 % of control

Structure (SMILES): CC1(C)CC1(Br)Br
- T/C [1]: 100 % of control
- T/C [2]: 106 % of control
- T/C [3]: 98 % of control and 100 % of control

Structure (SMILES): CC(C)C(=O)[O][Sn]([c]1ccccc1)([c]1ccccc1)[c]1ccccc1
- T/C [1]: 123 % of control

Structure (SMILES): Cc1ccc(S(=O)(=O)Nc2ccc([N+](=O)[O-])cc2[N+](=O)[O-])cc1
- T/C [2]: 95 % of control
- T/C [4]: 92 % of control

Structure (SMILES): CC12CCC(C)(O)C(CC3=C1CCc1ccccc13)C2=O (centres undefined)
- T/C (dose: 75.0 mg/kg/injection, schedule: Q04DX003 (ip), vehicle: saline): 100 % of control
- T/C (dose: 150.0 mg/kg/injection, schedule: Q04DX003 (ip), vehicle: saline): 91 % of control
- T/C (dose: 300.0 mg/kg/injection, schedule: Q04DX003 (ip), vehicle: saline): 95 % of control

Structure (SMILES): CSc1c(C)[nH]c2ccc([N+](=O)[O-])cc12
- T/C (dose: 25.0 mg/kg/injection, schedule: Q01DX001 (ip), vehicle: saline with Tween-80): 95 % of control
- T/C (dose: 50.0 mg/kg/injection, schedule: Q01DX001 (ip), vehicle: saline with Tween-80): 111 % of control
- T/C (dose: 100.0 mg/kg/injection, schedule: Q01DX001 (ip), vehicle: saline with Tween-80): 100 % of control

Structure (SMILES): Cc1csc(/N=C/c2ccc([N+](=O)[O-])o2)n1
- T/C [5]: 109 % of control
- T/C [6]: 118 % of control
- T/C [7]: 113 % of control

Structure (SMILES): CCCCN(C)N=Nc1c(C(N)=O)n[nH]c1C
- T/C (dose: 22.0 mg/kg/injection, schedule: Q01DX009 (ip), vehicle: saline with Tween-80): 122 % of control
- T/C [2]: 120 % of control
- T/C [4]: 154 % of control
- T/C (dose: 88.0 mg/kg/injection, schedule: Q04DX003 (ip), vehicle: Klucel (hydroxypropylcellulose) (HPC)): 109 % of control

Structure (SMILES): CCCCCCCCC(=O)Nc1ncnc2n[nH]nc12
- T/C (dose: 6.25 mg/kg/injection, schedule: Q01DX009 (ip), vehicle: saline with Tween-80): 87 % of control
- T/C [1]: 90 % of control
- T/C [2]: 102 % of control
- T/C [4]: 109 % of control

Structure (SMILES): FC(Cl)(Cl)c1nc2nc(Cl)c(Cl)nc2[nH]1
- T/C (dose: 3.12 mg/kg/injection, schedule: Q01DX009 (ip), vehicle: water): 104 % of control
- T/C (dose: 6.25 mg/kg/injection, schedule: Q01DX009 (ip), vehicle: water): 107 % of control
- T/C (dose: 6.25 mg/kg/injection, schedule: Q04DX003 (ip), vehicle: water): 116 % of control
- T/C (dose: 12.5 mg/kg/injection, schedule: Q01DX009 (ip), vehicle: water): 100 % of control
- T/C (dose: 12.5 mg/kg/injection, schedule: Q04DX003 (ip), vehicle: water): 116 % of control
- T/C (dose: 25.0 mg/kg/injection, schedule: Q01DX009 (ip), vehicle: water): 108 % of control
- T/C (dose: 25.0 mg/kg/injection, schedule: Q04DX003 (ip), vehicle: water): 102 % of control
- T/C (dose: 50.0 mg/kg/injection, schedule: Q01DX009 (ip), vehicle: water): 118 % of control
- T/C (dose: 50.0 mg/kg/injection, schedule: Q04DX003 (ip), vehicle: water): 116 % of control
- T/C [8]: 101 % of control
- T/C [9]: 102 % of control

Structure (SMILES): O=C1NC(=O)C(c2ccc(O)cc2)N1 (centres undefined)
- T/C [6]: 100 % of control
- T/C [7]: 109 % of control
- T/C [10]: 118 % of control

Structure (SMILES): CCOC(=N)CC(=N)OCC
- T/C [8]: 103 % of control
- T/C [9]: 104 % of control
- T/C (dose: 200.0 mg/kg/injection, schedule: Q01DX009 (ip), vehicle: water): 103 % of control
- T/C (dose: 200.0 mg/kg/injection, schedule: Q04DX003 (ip), vehicle: water): 100 % of control
- T/C (dose: 400.0 mg/kg/injection, schedule: Q01DX009 (ip), vehicle: water): 101 % of control
- T/C (dose: 400.0 mg/kg/injection, schedule: Q04DX003 (ip), vehicle: water): 100 % of control

Structure (SMILES): CCN(CC)Cc1cc(Nc2cc(C)nc(Nc3ccc(Cl)c(Cl)c3)n2)ccc1OC
- T/C (dose: 12.5 mg/kg/injection, schedule: Q04DX003 (ip), vehicle: saline with Tween-80): 110 % of control
- T/C (dose: 25.0 mg/kg/injection, schedule: Q04DX003 (ip), vehicle: saline with Tween-80): 110 % of control
- T/C [5]: 110 % of control

Structure (SMILES): COc1cc2ccc(CCN)cc2cc1OC
- T/C [1]: 95 % of control
- T/C [2]: 108 % of control
- T/C [4]: 87 % of control

Structure (SMILES): COc1cccc(N=C(N)N=C(N)N)c1
- T/C (dose: 25.0 mg/kg/injection, schedule: Q04DX003 (ip), vehicle: saline): 95 % of control
- T/C (dose: 50.0 mg/kg/injection, schedule: Q01DX001 (ip), vehicle: saline): 100 % of control
- T/C (dose: 50.0 mg/kg/injection, schedule: Q04DX003 (ip), vehicle: saline): 91 % of control
- T/C (dose: 100.0 mg/kg/injection, schedule: Q01DX001 (ip), vehicle: saline): 100 % of control
- T/C (dose: 100.0 mg/kg/injection, schedule: Q04DX003 (ip), vehicle: saline): 95 % of control

Structure (SMILES): CN(C)C1C(=O)C(C(N)=O)=C(O)C2(O)C(=O)C3=C(O)c4c(O)cccc4C(C)(O)C3C(O)C12 (centres undefined)
- T/C (dose: 50.0 mg/kg/injection, schedule: Q01DX010 (oral), vehicle: water): 100 % of control
- T/C (dose: 100.0 mg/kg/injection, schedule: Q01DX010 (oral), vehicle: water): 109 % of control
- T/C (dose: 200.0 mg/kg/injection, schedule: Q01DX010 (oral), vehicle: water): 100 % of control

Structure (SMILES): COc1cccc2c1C(=O)c1c(O)c3c(c(O)c1C2=O)C[C@@](O)(C(=O)COC(=O)c1cccnc1)C[C@@H]3OC1CC(N)C(O)C(C)O1 (some centres undefined)
- T/C (dose: 1.32 mg/kg/injection, schedule: Q01DX009 (ip), vehicle: saline): 195 % of control
- T/C (dose: 2.0 mg/kg/injection, schedule: Q01DX009 (ip), vehicle: saline): 237 % of control

Structure (SMILES): O=C(NC(Cc1ccccc1)C(=O)O)OCc1ccccc1 (centres undefined)
- T/C [3]: 120 % of control
- T/C [6]: 92 % of control
- T/C [7]: 100 % of control
- T/C [10]: 107 % of control

From PubChem BioAssay AID328 (DTP/NCI, 2004)
